Publication PMC6356859 (ACS Omega, 2019)
“Also recorded” adds a separate entry of the source. Read-outs that look alike come from different tables or passages of the source.

Experiments:
EBOV [1] = assay: microbe, parasite or virus in culture; assay type: cell-based, Ebola virus
EBOV [2] = conditions: cited from earlier work
EBOV [3] = conditions: cited from earlier work; remark: listed apart in the source
EBOV [4] = conditions: read-out: IC50 for the inhibition of virus entry in cells; cited from earlier work

CCCCN(CCCC)CC(O)c1cc(Cl)cc2c1-c1ccc(Cl)cc1/C2=C/c1ccc(Cl)cc1 (stereo not shown) [Lumefantrine]
EBOV activity (in words) (EBOV [1]): inactive

C[C@H]1[C@H](OC(=O)CCC(=O)O)O[C@@H]2O[C@@]3(C)CC[C@H]4[C@H](C)CC[C@@H]1[C@@]24OO3 [Artesunate]
IC50 (EBOV [1]; Zaire ebolavirus, HeLa, read-out: IC50 (EBOV inhibitory activity)): 8.2 µM

CCN(CC)CCCC(C)Nc1ccnc2cc(Cl)ccc12 (stereo not shown) [chloroquine]
EC50 (EBOV [2]): 4 µM

NC(=O)c1nc(F)c[nH]c1=O [Favipiravir (T-705), Favipiravir]
EBOV activity (in words) (EBOV [1]): inactive; also recorded: no activity at the concentrations tested | EC50 (EBOV [3]): 10 to 63 µg/mL | IC50 (EBOV [3]): 67 µM

Clc1ccc2c(N3CCN(CCCN4CCN(c5ccnc6cc(Cl)ccc56)CC4)CC3)ccnc2c1 [Piperaquine Phosphate 4H20]
EBOV activity (in words) (EBOV [1]): inactive

Nc1nc2c(ncn2COCCO)c(=O)[nH]1 [Acyclovir]
EBOV activity (in words) (EBOV [1]): lacked an activity

C[C@H]1Cc2c([nH]c3cc(Cl)c(F)cc23)[C@@]2(N1)C(=O)Nc1ccc(Cl)cc12 [Cipargamin]
selectivity indexes (EBOV [1]): < 5

CCN(CC)Cc1cc(Nc2ccnc3cc(Cl)ccc23)ccc1O [amodiaquine]
IC50 (EBOV [4]): 2.6 µM
